# From ChEMBL document CHEMBL1201862, “PubChem BioAssay data set” (2004)
# Activity calls are given as the source filed them.
# Tests used:
# [1] = target: T1, RNA-binding protein pos-1 (Caenorhabditis elegans, UniProt G5EF15); experiment: inhibitors of POS-1/mex-3 RNA binding, dose response, biochemical, fluorescence polarization (AID 1964);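 also: purified POS-1 fused to maltose binding protein made in E. coli; potency of compounds blocking POS-1 binding to fluorescent RNA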
# T1 sequence (G5EF15 whole entry): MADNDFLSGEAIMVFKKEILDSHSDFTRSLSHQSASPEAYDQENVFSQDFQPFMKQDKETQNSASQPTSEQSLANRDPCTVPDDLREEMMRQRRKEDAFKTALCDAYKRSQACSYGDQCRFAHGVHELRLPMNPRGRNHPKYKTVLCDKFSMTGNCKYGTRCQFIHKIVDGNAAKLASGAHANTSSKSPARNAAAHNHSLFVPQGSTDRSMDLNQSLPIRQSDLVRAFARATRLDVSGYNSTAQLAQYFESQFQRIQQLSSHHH
# [2] = target: T2, Zinc finger protein mex-5 (Caenorhabditis elegans, UniProt Q9XUB2); experiment: MEX-5/TCR-2 RNA interaction inhibitors, dose response, biochemical, C. elegans, fluorescence polarization (AID 1960)
# T2 sequence (Q9XUB2 whole entry): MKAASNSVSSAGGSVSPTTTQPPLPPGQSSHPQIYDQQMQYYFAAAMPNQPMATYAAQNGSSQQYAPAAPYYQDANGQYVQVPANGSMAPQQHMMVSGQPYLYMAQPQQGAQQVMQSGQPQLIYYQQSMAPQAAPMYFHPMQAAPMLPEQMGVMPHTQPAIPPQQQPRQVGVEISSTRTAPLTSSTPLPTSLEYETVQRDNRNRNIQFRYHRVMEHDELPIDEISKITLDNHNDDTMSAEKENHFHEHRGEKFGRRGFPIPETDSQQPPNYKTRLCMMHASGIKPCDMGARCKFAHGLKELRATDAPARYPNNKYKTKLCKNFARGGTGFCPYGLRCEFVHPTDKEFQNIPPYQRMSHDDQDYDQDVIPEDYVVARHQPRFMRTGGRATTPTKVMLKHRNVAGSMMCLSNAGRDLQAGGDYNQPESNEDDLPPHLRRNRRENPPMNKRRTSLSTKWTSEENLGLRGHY
# Protein Rev = Protein Rev (Human immunodeficiency virus type 1 group M subtype B (isolate HXB2)(HIV-1), UniProt P04618); experiment: inhibitors of Rev binding to RRE RNA, dose response, biochemical, fluorescence polarization, HIV-1 (AID 434976); design: species or system Human immunodeficiency virus 1
# Sequence of Protein Rev (P04618 whole entry): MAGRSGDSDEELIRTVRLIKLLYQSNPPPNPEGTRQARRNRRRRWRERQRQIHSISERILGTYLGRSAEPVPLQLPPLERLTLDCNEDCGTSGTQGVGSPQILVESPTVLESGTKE
# [3] = target: Female germline-specific tumor suppressor gld-1 (Caenorhabditis elegans, UniProt Q17339); experiment: inhibitors of GLD-1 binding to TGE RNA, dose response, biochemical, fluorescence polarization, C. elegans (AID 2802);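 also: fluorescence polarization of labeled TGE RNA bound by purified gld-1 protein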
# Sequence of Female germline-specific tumor suppressor gld-1 (Q17339 whole entry): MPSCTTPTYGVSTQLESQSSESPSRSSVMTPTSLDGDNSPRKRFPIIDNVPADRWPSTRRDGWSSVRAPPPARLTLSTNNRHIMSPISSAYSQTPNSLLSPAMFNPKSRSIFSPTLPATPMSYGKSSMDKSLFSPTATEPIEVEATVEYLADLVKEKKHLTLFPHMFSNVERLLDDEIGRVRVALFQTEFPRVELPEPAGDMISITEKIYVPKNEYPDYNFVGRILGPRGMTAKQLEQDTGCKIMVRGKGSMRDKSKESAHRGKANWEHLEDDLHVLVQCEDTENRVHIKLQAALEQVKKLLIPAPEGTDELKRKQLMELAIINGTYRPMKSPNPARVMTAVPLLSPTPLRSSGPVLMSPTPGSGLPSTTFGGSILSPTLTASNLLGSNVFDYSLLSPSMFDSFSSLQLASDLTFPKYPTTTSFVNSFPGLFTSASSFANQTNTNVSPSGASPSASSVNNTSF
# [4] = viability loss in BJeLR (HRASV12) cells, primary screen, Ras selective lethality project, cell-based, Alamar Blue, dry powder (AID 493045); type: functional
# [5] = viability loss in HRASV12 DRD fibroblasts, dose response, cell-based, DRD BJ fibroblasts, dry powder (AID 493049); type: functional
# [6] = cytotoxicity in BJeH fibroblasts, dose response, counter-screen for Ras selective lethality project, BJeH cells, dry powder (AID 493054); type: functional, cell-based
# [7] = cytotoxicity in BJeHLT fibroblasts, dose response, counter-screen for Ras selective lethality project, BJeHLT cells, dry powder (AID 493052); type: functional, cell-based; settings: Homo sapiens
# [8] = target: Intestinal-type alkaline phosphatase (Homo sapiens, UniProt P09923); experiment: inhibition of human intestinal alkaline phosphatase – biochemical, dose response (AID 488876); type: functional
# Sequence of Intestinal-type alkaline phosphatase (Homo sapiens, UniProt P09923) (P09923 whole entry): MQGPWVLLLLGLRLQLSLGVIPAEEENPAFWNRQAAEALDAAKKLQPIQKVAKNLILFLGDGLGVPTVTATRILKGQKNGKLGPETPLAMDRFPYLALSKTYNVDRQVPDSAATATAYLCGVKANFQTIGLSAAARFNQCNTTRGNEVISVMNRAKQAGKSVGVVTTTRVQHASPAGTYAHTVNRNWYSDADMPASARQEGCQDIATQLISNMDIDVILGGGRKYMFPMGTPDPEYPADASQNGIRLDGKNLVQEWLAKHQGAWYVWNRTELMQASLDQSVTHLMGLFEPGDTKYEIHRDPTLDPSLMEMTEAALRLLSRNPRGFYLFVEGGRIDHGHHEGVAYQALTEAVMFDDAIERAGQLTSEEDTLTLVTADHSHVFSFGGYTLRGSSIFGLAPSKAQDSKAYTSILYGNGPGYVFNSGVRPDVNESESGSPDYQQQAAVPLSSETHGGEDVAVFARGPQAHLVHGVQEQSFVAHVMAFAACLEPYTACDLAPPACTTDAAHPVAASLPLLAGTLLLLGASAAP
# Genome polyprotein = Genome polyprotein (dengue virus type 2, UniProt P29990); experiment: Dengue-2 NS5 methyltransferase inhibitors, primary screen, biochemical, confirmation dose response (AID 588689); type: functional
# [9] = target: 1-phosphatidylinositol 4,5-bisphosphate phosphodiesterase gamma-1 (Homo sapiens, UniProt P19174); experiment: Counterscreen for inhibitors of phospholipase C isozymes (PLC-B3): Fluorescence-based biochemical high throughput dose response assay to identify inhibitors of phospholipase C isozymes (PLC-gamma1).
# Large T antigen = Large T antigen (Simian virus 40, UniProt P03070); type: functional, Betapolyomavirus macacae;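 also: Confirmatory-stage PubChem screen for compounds that inhibit SV40 T antigen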
# [10] = target: T3, Alkaline phosphatase, tissue-nonspecific isozyme (Homo sapiens, UniProt P05186); experiment: TNAP enzyme inhibition by screening hits, dose response, selectivity assay for mouse IAP inhibitor project, biochemical, human TNAP, uHTS hits (AID 488906); type: functional
# T3 sequence (P05186 whole entry): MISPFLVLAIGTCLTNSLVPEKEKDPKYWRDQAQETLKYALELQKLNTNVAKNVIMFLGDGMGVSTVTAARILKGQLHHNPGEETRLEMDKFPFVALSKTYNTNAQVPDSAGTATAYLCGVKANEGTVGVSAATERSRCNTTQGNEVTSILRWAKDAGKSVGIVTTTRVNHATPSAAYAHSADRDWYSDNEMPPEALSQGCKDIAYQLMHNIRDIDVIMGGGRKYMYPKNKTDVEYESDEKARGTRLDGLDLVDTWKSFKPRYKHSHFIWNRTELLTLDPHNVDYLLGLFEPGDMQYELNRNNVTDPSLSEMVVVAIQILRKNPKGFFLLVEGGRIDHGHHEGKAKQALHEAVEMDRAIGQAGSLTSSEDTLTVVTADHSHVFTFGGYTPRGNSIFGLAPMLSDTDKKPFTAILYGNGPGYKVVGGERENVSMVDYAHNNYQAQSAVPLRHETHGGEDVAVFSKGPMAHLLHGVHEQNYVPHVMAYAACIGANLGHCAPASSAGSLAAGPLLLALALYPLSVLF
# [11] = target: Induced myeloid leukemia cell differentiation protein Mcl-1 (Homo sapiens, UniProt Q07820); experiment: MCL1-BIM BH3 interaction inhibitors, dose response, biochemical, fluorescence polarization, BIM-BH3 peptide, 1536-well (AID 2217)
# Sequence of Induced myeloid leukemia cell differentiation protein Mcl-1 (Q07820 whole entry): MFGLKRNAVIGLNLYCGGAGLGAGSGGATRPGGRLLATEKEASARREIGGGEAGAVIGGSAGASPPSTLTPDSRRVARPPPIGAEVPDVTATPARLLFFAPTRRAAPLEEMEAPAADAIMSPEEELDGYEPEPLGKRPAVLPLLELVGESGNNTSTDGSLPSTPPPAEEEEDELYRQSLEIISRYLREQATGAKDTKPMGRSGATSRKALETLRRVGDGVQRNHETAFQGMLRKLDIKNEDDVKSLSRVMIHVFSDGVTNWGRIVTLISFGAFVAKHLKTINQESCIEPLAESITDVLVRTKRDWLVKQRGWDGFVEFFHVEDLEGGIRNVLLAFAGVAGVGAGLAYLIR
# Bcl-2-like protein 1 = Bcl-2-like protein 1 (Homo sapiens, UniProt Q07817); experiment: BCL-XL inhibitors, dose response, selectivity assay for MCL1 inhibitor project, biochemical, fluorescence polarization, 1536-well (AID 2218)
# Sequence of Bcl-2-like protein 1 (Q07817 whole entry): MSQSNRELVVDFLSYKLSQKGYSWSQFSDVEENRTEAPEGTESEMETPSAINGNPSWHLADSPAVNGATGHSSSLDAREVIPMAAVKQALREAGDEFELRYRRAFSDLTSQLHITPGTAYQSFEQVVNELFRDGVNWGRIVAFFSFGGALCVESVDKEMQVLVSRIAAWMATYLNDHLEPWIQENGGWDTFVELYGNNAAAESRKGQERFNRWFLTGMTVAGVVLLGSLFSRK
# [12] = target: Intestinal-type alkaline phosphatase (Mus musculus, UniProt P24822); experiment: PubChem AID 488785; type: functional
# HeLa = experiment: HeLa cell cytotoxicity, dose response, cytotoxicity control, 24 h, cherry-picked samples (AID 504726); type: functional, cell-based; settings: Homo sapiens;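 also: potency for cytotoxicity as loss of luminescence signal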
# ORF 73 = ORF 73 (Human herpesvirus 8, UniProt O40947); experiment: inhibitors of C-LANA binding to LBS DNA, dose response, biochemical, fluorescence polarization, cherry-picked samples (AID 504725); design: species or system Human gammaherpesvirus 8;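 also: fluorescence polarization of a labeled DNA duplex reporting LANA DNA binding; potency is for inhibitors that block LANA binding to the DNA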
# [13] = target: 1-phosphatidylinositol 4,5-bisphosphate phosphodiesterase beta-3 (Homo sapiens, UniProt Q01970); experiment: Fluorescence-based biochemical high throughput dose response assay to identify inhibitors of phospholipase C isozymes (PLC-B3).
# [14] = target: T4, Histone-lysine N-methyltransferase NSD2 (Homo sapiens, UniProt O96028); type: biochemical
# T4 sequence (O96028 whole entry): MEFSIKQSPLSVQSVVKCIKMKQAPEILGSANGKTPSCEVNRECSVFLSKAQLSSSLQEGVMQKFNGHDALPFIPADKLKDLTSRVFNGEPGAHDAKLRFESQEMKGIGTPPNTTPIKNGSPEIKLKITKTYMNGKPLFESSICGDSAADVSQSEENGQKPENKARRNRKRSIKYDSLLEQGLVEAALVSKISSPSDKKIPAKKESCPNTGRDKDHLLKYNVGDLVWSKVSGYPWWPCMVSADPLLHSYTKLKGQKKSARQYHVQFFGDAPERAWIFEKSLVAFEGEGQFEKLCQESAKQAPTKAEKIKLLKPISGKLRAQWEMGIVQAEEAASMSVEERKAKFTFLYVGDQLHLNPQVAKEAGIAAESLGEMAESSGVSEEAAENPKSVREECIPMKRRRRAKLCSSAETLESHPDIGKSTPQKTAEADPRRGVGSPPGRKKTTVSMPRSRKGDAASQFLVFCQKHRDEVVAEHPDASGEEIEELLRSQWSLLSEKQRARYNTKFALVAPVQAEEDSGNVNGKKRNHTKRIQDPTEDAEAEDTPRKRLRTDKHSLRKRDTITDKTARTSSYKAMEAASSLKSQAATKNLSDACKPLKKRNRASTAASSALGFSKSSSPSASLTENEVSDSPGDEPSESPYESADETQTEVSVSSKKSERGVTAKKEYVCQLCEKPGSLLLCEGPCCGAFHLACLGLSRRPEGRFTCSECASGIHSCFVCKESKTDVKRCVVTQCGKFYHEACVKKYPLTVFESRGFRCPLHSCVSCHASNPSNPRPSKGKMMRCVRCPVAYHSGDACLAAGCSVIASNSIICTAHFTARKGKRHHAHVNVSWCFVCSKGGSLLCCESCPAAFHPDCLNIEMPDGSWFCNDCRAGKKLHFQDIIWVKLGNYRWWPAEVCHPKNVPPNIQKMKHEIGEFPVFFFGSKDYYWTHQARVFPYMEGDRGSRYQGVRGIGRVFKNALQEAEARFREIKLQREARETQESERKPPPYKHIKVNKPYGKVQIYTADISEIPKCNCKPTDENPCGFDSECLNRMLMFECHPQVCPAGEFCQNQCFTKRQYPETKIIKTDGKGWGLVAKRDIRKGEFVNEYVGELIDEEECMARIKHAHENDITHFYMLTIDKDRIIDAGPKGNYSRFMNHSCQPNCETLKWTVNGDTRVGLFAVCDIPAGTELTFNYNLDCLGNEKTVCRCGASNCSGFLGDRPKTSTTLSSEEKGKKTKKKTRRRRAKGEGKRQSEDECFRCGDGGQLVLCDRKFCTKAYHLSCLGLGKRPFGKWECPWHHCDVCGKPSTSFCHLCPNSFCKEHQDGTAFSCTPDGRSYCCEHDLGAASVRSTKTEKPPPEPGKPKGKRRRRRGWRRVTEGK
# [15] = P. falciparum late gametocyte killing, dose response, luminescence (AID 1117278); type: functional, cell-based;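 also: gametocytes exposed to compound for 24 hours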
# [16] = target: G-protein coupled receptor 55 (Homo sapiens, UniProt Q9Y2T6); experiment: GPR55 antagonists blocking LPI-driven arrestin recruitment, primary screen, imaging, U2OS, beta-arrestin-GFP, LPI agonist (AID 2013); type: functional;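 also: antagonist potency measured as reduced agonist-driven arrestin aggregation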
# [17] = target: T5, Heat shock factor protein 1 (Mus musculus, UniProt P38532); experiment: HSF1 potentiators in luciferase reporter cells, confirmation, cell-based, NIH3T3, luminescence, dose retest (AID 435004); type: functional;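 also: stress induced by proteasome inhibitor MG132 added 30 min after compound; luciferase reporter driven by HSF1 response element in NIH3T3 cells; actives raise luminescence as potentiators of the MG132 stress response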
# T5 sequence (P38532 whole entry): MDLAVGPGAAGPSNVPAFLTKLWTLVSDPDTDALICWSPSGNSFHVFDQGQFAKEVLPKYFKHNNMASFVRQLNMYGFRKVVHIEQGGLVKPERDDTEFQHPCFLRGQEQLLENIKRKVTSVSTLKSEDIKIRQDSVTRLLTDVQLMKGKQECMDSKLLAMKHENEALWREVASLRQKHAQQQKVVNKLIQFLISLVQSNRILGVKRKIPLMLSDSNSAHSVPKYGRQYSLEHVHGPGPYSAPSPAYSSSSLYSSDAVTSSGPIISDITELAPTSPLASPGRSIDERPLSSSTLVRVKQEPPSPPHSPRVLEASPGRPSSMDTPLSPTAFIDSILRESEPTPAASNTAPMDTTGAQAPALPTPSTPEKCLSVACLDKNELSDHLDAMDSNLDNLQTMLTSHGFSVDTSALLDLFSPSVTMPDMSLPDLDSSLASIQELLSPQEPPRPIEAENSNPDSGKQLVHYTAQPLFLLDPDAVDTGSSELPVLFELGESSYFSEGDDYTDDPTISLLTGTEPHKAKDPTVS
# [18] = Jurkat T cell cytotoxicity, dose response, cytotoxicity control for P. falciparum gametocyte viability project, luminescence (AID 1117277); type: functional, cell-based;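 also: potency reflects loss of cellular ATP meaning fewer viable cells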
# [19] = target: T6, Voltage-gated N-type calcium channel alpha-1B subunit/Amyloid beta A4 precursor protein-binding family A member 1 (Homo sapiens, UniProt Q00975+Q02410); type: protein assay
# T6 sequence (Q00975 whole entry): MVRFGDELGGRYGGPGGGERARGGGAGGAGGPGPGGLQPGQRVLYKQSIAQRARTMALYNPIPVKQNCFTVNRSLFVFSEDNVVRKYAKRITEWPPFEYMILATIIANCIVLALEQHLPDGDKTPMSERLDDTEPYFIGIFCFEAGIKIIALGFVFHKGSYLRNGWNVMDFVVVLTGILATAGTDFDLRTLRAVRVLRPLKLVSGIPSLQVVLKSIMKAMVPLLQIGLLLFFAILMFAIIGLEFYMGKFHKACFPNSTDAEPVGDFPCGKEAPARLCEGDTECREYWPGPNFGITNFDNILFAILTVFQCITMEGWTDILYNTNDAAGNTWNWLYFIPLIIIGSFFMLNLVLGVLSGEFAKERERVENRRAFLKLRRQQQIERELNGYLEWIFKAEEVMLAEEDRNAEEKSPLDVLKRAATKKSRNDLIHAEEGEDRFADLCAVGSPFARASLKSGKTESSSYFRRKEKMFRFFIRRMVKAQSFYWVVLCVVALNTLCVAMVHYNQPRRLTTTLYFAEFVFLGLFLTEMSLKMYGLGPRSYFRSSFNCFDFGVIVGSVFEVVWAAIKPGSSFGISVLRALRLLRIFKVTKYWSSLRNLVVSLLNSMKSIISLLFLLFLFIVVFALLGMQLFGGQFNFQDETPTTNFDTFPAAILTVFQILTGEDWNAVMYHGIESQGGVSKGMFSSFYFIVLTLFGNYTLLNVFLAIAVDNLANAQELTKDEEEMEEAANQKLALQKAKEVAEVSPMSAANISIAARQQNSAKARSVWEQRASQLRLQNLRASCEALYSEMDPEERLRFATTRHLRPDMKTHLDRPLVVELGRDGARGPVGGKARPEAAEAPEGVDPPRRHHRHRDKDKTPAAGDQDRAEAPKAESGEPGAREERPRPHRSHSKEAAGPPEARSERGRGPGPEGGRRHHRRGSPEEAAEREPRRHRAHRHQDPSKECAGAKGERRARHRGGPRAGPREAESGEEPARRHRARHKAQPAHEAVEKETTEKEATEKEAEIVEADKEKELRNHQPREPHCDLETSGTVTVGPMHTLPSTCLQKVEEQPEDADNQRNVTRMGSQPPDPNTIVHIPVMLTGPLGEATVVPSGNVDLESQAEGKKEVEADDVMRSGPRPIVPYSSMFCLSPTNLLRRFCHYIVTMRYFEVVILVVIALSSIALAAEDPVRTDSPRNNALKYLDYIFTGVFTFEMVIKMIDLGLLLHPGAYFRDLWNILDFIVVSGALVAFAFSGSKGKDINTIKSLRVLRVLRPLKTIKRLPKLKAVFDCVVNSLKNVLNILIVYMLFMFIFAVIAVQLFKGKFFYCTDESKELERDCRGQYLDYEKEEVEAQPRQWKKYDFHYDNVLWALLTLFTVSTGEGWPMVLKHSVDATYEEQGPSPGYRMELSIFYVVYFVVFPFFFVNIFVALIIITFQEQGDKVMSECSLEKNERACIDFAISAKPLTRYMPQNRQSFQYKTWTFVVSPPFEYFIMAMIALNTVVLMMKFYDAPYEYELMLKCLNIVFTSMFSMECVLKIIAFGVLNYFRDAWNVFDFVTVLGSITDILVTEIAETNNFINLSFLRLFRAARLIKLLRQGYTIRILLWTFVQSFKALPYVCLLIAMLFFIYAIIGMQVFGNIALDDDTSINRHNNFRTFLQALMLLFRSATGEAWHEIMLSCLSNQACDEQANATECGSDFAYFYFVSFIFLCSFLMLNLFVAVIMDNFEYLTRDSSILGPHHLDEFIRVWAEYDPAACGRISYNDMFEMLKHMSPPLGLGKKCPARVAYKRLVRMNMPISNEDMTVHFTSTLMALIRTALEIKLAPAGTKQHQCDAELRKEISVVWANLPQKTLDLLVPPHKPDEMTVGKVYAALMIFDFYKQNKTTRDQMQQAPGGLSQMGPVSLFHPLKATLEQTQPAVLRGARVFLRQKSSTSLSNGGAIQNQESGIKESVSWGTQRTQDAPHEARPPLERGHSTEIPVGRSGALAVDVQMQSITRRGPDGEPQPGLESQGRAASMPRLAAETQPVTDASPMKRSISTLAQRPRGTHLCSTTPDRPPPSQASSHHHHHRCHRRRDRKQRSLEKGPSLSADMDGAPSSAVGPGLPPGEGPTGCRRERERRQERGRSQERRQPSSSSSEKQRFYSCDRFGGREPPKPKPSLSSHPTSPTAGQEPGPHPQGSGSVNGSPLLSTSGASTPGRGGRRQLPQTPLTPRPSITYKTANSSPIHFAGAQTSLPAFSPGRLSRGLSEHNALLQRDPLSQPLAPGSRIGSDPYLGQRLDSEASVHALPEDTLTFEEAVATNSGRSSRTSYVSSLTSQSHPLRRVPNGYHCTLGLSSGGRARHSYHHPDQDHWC
# T6 sequence (Q02410 whole entry): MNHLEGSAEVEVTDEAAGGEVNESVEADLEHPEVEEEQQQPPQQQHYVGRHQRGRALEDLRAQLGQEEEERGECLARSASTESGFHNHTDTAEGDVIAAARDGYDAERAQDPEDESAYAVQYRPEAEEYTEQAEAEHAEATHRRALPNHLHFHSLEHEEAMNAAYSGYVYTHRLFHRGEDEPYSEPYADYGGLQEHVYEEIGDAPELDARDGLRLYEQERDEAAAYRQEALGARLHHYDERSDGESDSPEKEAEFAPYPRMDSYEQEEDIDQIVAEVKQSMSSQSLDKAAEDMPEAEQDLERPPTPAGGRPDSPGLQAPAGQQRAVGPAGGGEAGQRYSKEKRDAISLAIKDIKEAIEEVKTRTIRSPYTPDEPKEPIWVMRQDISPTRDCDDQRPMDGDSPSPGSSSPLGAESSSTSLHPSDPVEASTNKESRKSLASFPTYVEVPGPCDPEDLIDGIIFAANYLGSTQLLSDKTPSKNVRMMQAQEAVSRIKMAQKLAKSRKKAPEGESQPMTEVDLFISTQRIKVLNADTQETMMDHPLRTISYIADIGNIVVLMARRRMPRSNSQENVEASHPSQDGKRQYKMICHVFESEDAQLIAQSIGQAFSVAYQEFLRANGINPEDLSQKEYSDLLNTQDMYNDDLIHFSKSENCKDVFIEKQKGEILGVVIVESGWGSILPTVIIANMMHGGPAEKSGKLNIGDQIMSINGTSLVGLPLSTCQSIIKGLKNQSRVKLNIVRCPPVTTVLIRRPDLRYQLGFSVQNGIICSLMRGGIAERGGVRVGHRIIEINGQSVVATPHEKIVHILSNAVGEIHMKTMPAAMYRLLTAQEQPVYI
# [20] = target: T6, Voltage-gated N-type calcium channel alpha-1B subunit/Amyloid beta A4 precursor protein-binding family A member 1; type: protein assay; remark: listed apart in the source
# [21] = target: T6, Voltage-gated N-type calcium channel alpha-1B subunit/Amyloid beta A4 precursor protein-binding family A member 1; experiment: disruptors of Mint-PDZ/N-type channel peptide interaction – biochemical, HTRF, SAR follow-up (AID 2489); type: functional
smiles,measurement,setting,value
CCN1C/C(=C/c2cccs2)c2nc3ccccc3c(C(=O)O)c2C1,EC50,[1],39.2 µM (active)
same,EC50,[2],31.9 µM (active)
same,IC50,Protein Rev,17 µM (not active)
same,IC50,[3],9.41 µM (active)
COc1ccc(N(C(=O)CCl)C(C(=O)NCn2nnc3ccccc32)c2cccs2)cc1Cl (stereo not drawn),AC50,[4],0.102 µM (active)
same,AC50,[5],0.097 µM (active)
same,AC50,[6],0.432 µM (active)
same,AC50,[7],0.242 µM (active)
O=C(CN1C(=O)/C(=C/c2ccco2)SC1=S)Nc1ccc(O)c(C(=O)O)c1,IC50,[8],13.2 µM (active)
same,IC50,Genome polyprotein,> 100 µM (active)
same,IC50,[9],> 122 µM (inactive)
same,IC50,Large T antigen,54.3 µM (active)
same,IC50,[10],15.1 µM (active)
same,IC50,[11],18.5 µM (not active)
same,IC50,Bcl-2-like protein 1,> 109 µM (not active)
same,IC50,[12],5.86 µM (active)
same,AC50,HeLa,> 350 µM (inactive)
same,AC50,ORF 73,98.5 µM (active)
same,IC50,[13],> 122 µM (inactive)
same,AC50,[14],> 20 µM (inactive)
COc1ccc(N(C(=O)CCl)C(C(=O)NC2CCCCC2)c2cccs2)cc1Cl (stereo not drawn),AC50,[4],0.113 µM (active)
same,AC50,[5],0.12 µM (active)
same,AC50,[6],0.455 µM (active)
same,AC50,[7],0.27 µM (active)
COc1ccc(NC(=O)c2ccc(-c3ccc(C(C)=O)cc3)o2)cn1,IC50,Protein Rev,16.4 µM (not active)
same,IC50,[3],9.1 µM (active)
N#CCC(=O)Nc1ccc(C(=O)OCC(=O)Nc2ccccc2Sc2ccccc2)cc1,IC50,[15],> 109 µM (inactive)
same,IC50,[16],2.17 µM (active)
same,EC50,[17],> 260 µM (inactive)
same,IC50,[18],> 83.3 µM (inactive)
CCCCc1ccc(/C=C2\C(=O)c3ccccc3C(O)=C2C(=O)OCC)cc1,IC50,[19],5.63 µM (active)
same,IC50,[20],17.8 µM (active)
same,IC50,[21],16.2 µM (active)
